Data from PMC8151276, “An Integrated Approach toward NanoBRET Tracers for Analysis of GPCR Ligand Engagement” (Molecules, 2021).

Target: T1, TACR2 (Homo sapiens, UniProt P21452)
T1 construct: purchased Promega (in-house HiBiT-GPCR construct library, NanoBRET)
T1 sequence (P21452 1-398): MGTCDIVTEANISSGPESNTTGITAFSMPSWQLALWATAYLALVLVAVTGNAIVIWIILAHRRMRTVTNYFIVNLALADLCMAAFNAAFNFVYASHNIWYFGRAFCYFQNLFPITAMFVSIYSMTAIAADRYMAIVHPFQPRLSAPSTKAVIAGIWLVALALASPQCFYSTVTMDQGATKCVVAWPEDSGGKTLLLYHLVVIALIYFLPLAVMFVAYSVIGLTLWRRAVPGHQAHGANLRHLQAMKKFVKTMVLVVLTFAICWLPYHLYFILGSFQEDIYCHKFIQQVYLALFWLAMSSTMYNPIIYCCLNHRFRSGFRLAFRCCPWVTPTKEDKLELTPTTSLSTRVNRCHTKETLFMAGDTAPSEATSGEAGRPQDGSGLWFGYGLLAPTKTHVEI
Assay: NanoBRET screen HiBiT-TACR2 in HEK293
Format: binding
Method: Each tracer candidate was screened across the entire library of HiBiT-GPCR constructs using NanoBRET as the detection modality. As depicted in Figure 4A, the specificity of interactions was evaluated through decrease in BRET due to competitive displacement of a bound tracer by excess parental compound. Each tracer was analyzed for binding to each HiBiT-GPCR fusion in the absence and in the presence of competing parental compound. Briefly, HEK293 cells were transfected with HiBiT-GPCR constructs diluted into promoterless DNA to reduce expression and maximize translocation to the cell surface. Each tracer candidate was then screened at concentrations of 1 μM and 0.1 μM across cells expressing these fusions. Cells were treated for 1.5 h with tracer either alone or in the presence of 20 μM competing parental compound (i.e., control). BRET was measured upon addition of purified LgBiT and subsequent complementation with HiBiT genetically fused to a GPCR. The specificity of interactions was assessed through a decrease in BRET signal due to competitive displacement of the bound tracer. To further gauge the robustness of these interactions, the fold response over the control (i.e., BRETtracer/BRETcontrol) was calculated. We chose a 1.5-fold response, which translates to ≥7-fold signal over noise as the minimal threshold required to score an interaction as positive. […]. Below we highlight the screening results obtained for our exemplary fluorescent tracers based on Clozapine, Amitriptyline and AZD1283.
HiBiT-GPCR DNA constructs were diluted in 10 mM Tris pH 8 to a final concentration of 0.01 μg/μL, arrayed in 96-well plates and stored at −20 °C. For transfection, HEK293 cells were suspended in Opti-MEM (without phenol red) supplemented with 2% fetal bovine serum (Seradigm) and 100 units/mL penicillin–streptomycin (Gibco) at a final concentration of 220,000 cells/mL and dispensed into white 96-well plates at 90 μL/well. Subsequent transfections and screens were carried using an Agilent Bravo Automated Liquid Handling Platform. First, the 96-well HiBiT DNA arrays were diluted 25-fold in Opti-MEM (without serum or phenol red) to a final concentration of 0.0004 μg/μL and 20 μL of the diluted DNAs were transferred into new 96-well plates. Next, promoterless carrier DNA (1 μg/μL) was diluted 25-fold (0.04 μg/μL) and then dispensed into the diluted arrays at 20 μL/well. Following brief mixing, Viafect transfection reagent (Promega) diluted 16-fold into Opti-MEM was dispensed into the plates at 40 μL/well. After mixing by pipetting, plates were incubated for 10 min on the pipetting station deck. The DNA-transfection reagent complexes were then added to plates containing cells. To facilitate the screen, 10 μL of DNA-transfection reagent complexes were added in duplicates to the top 4 and bottom 4 rows, resulting in two identical 48-well arrays per plate. Plates with transfected cells were incubated for 18–20 h at 37 °C/5% CO2. A screen of each tracer across the entire library using two different concentrations requires duplicate plates of transfected cells. Depending on the number of tracers being screened, transfections can be scaled up using the same ratios. The next day, for each tracer, four 20× screening solutions in tracer dilution buffer (Promega) were prepared: two duplicates at final concentration of 20 μM and two duplicates at a final concentration of 2 μM. A competing unmodified compound was added to one of each duplicate at a final concentration of 400 μM. The four resulting solutions were diluted 4-fold in Opti-MEM without serum or phenol red to generate 5× solutions (5 µM and 0.5 µM tracer +/− 100 μM competing compound). To screen the library, a BioTek MultiFlo FX liquid dispenser was used to dispense 22.5 µL of tracer solution to the top 4 rows and 22.5 µL tracer + competing compound solution to the 4 bottom rows. Plates were briefly mixed on an orbital shaker and incubated for 1.5 h at room temperature. […]

O=C(CCOCCOCCOCCOCCNC(=O)CCc1ccc2n1[B-](F)(F)[N+]1=C(c3ccc[nH]3)C=CC1=C2)NCCCN1CCN(C2=Nc3ccccc3Oc3ccc(Cl)cc32)CC1 [Loxapine-a-2-NB590]
NanoBRET Fold Response (TACR2, tracer 0.1μM): 0.86 | NanoBRET Fold Response (TACR2, tracer 1μM): 0.64

CCCn1c(=O)c2[nH]c(-c3ccc(OCC(=O)NCCNC(=O)CCOCCNC(=O)c4ccc(CNC(=O)CCc5ccc6n5[B-](F)(F)[N+]5=C(c7ccc[nH]7)C=CC5=C6)cc4)cc3)nc2n(CCC)c1=O [XAC-3-NB590]
NanoBRET Fold Response (TACR2, tracer 0.1μM): 0.96 | NanoBRET Fold Response (TACR2, tracer 1μM): 1.21

CN(C)CCC=C1c2ccccc2CCc2ccc(C(=O)NCCNC(=O)CCOCCOCCOCCOCCNC(=O)CCc3ccc4n3[B-](F)(F)[N+]3=C(c5ccc[nH]5)C=CC3=C4)cc21 [Amitriptyline-a-2-NB590]
NanoBRET Fold Response (tracer at 0.1μM): 1.10 | NanoBRET Fold Response (tracer at 1μM): 1.13

COc1ccccc1N1CCN(CCCCN2C(=O)c3ccc(CNC(=O)CCOCCOCCOCCOCCNC(=O)CCc4ccc5n4[B-](F)(F)[N+]4=C(c6ccc[nH]6)C=CC4=C5)cc3C2=O)CC1 [NAN-190-2-NB590]
NanoBRET Fold Response (TACR2, tracer 0.1μM): 0.88 | NanoBRET Fold Response (TACR2, tracer 1μM): 1.04

O=C(CCc1ccc2n1[B-](F)(F)[N+]1=C(c3ccc[nH]3)C=CC1=C2)NCc1ccc(C(=O)NCCOCCOCCNCC(O)COc2cccc3ccccc23)cc1 (stereo not drawn) [Propranolol-3-NB590]
NanoBRET Fold Response (TACR2, 0.1μM): 1.01 | NanoBRET Fold Response (TACR2, 1μM): 1.01

COc1ccccc1N1CCN(CCCCN2C(=O)c3ccc(CNC(=O)CCOCCNC(=O)c4ccc(CNC(=O)CCc5ccc6n5[B-](F)(F)[N+]5=C(c7ccc[nH]7)C=CC5=C6)cc4)cc3C2=O)CC1 [NAN-190-3-NB590]
NanoBRET Fold Response (TACR2, tracer 0.1μM): 1.12 | NanoBRET Fold Response (TACR2, tracer 1μM): 1.09

O=C(CCc1ccc2n1[B-](F)(F)[N+]1=C(c3ccc[nH]3)C=CC1=C2)NCc1ccc(C(=O)NCCOCCC(=O)N[C@@H]2CC[C@@]3(O)[C@H]4Cc5ccc(O)c6c5[C@@]3(CCN4CC3CC3)[C@H]2O6)cc1 [Naltrexone-3-NB590]
NanoBRET Fold Response (TACR2, tracer 0.1μM): 0.82 | NanoBRET Fold Response (TACR2, tracer 1μM): 0.91

CCOC(=O)c1cc(C#N)c(N2CCC(C(=O)NS(=O)(=O)Cc3ccccc3/C=C/C(=O)NCCNC(=O)CCc3ccc4n3[B-](F)(F)[N+]3=C(c5ccc[nH]5)C=CC3=C4)CC2)nc1C [AZD1283-1-NB590]
NanoBRET Fold Response (TACR2, 0.1μM): 1.09 | NanoBRET Fold Response (TACR2, 1μM): 1.04

COc1ccc2[nH]c(-c3ccc(CNC(=O)CCOCCOCCOCCOCCNC(=O)CCc4ccc5n4[B-](F)(F)[N+]4=C(c6ccc[nH]6)C=CC4=C5)cc3)c(CCNC(C)=O)c2n1 [AzomelatoninICO9-2-NB590]
NanoBRET Fold Response (0.1μM tracer): 0.37 | NanoBRET Fold Response (1μM tracer): 0.84

CC(C)N(CC[C@H](c1ccccc1)c1cc(CCNC(=O)CCOCCOCCOCCOCCNC(=O)CCc2ccc3n2[B-](F)(F)[N+]2=C(c4ccc[nH]4)C=CC2=C3)ccc1O)C(C)C [Tolterodine-2-NB590]
NanoBRET Fold Response (TACR2, tracer 0.1μM): 0.87 | NanoBRET Fold Response (TACR2, tracer 1μM): 1.41

CN1CCN(C2=Nc3cc(Cl)ccc3N(CC(=O)NCCOCCOCCOCCOCCNC(=O)CCc3ccc4n3[B-](F)(F)[N+]3=C(c5ccc[nH]5)C=CC3=C4)c3ccccc32)CC1 [Clozapine-c-2-NB590]
NanoBRET Fold Response (TACR2, 0.1μM tracer): 0.93 | NanoBRET Fold Response (TACR2, 1μM tracer): 0.88

N#CN=C(NCCCOc1cccc(CN2CCCCC2)c1)NCCNC(=O)CCOCCOCCOCCOCCNC(=O)CCc1ccc2n1[B-](F)(F)[N+]1=C(c3ccc[nH]3)C=CC1=C2 [Aminopotentidine-2-NB590]
NanoBRET Fold Response (TACR2, tracer 0.1μM): 0.98 | NanoBRET Fold Response (TACR2, tracer 1μM): 1.02

COc1ccc2c(n1)c(CCNC(C)=O)cn2CCNC(=O)CCc1ccc2n1[B-](F)(F)[N+]1=C(c3ccc[nH]3)C=CC1=C2 [Azamelatonin-1-NB590]
NanoBRET Fold Response (0.1μM tracer): 0.81 | NanoBRET Fold Response (1μM tracer): 0.91

CC(C)N(CC[C@H](c1ccccc1)c1cc(CCNC(=O)c2ccc(CNC(=O)CCc3ccc4n3[B-](F)(F)[N+]3=C(c5ccc[nH]5)C=CC3=C4)cc2)ccc1O)C(C)C [Tolterodine-BZ-NB590]
NanoBRET Fold Response (TACR2, tracer 0.1μM): 1.38 | NanoBRET Fold Response (TACR2, tracer 1μM): 1.40

O=C(CCc1ccc2n1[B-](F)(F)[N+]1=C(c3ccc[nH]3)C=CC1=C2)NCCOCCOCCNC(=O)OCCOCCN1CCN(C2=Nc3ccccc3Sc3ccccc32)CC1 [Quetiapine-a-2-NB590]
NanoBRET Fold Response (TACR2, tracer 0.1μM): 1.22 | NanoBRET Fold Response (TACR2, tracer 1μM): 0.72

Cc1cc2c(s1)Nc1ccccc1N=C2N1CCN(CCCNC(=O)CCOCCOCCOCCOCCNC(=O)CCc2ccc3n2[B-](F)(F)[N+]2=C(c4ccc[nH]4)C=CC2=C3)CC1 [Olanzapine-a-2-NB590]
NanoBRET Fold Response (TACR2, tracer 0.1μM): 1.01 | NanoBRET Fold Response (TACR2, tracer 1μM): 0.88

CN(C)CCC=C1c2ccccc2CCc2ccc(C(=O)NCCNC(=O)CCOCCOCCOCCOCCNC(=O)CCc3ccc4n3[B-](F)(F)[N+]3=C(c5ccc[nH]5)C=CC3=C4)cc21 [Amitriptyline-b-2-NB590]
NanoBRET Fold Response (tracer at 0.1μM, listed as amitriptyline-b-2-NB590): 0.86 | NanoBRET Fold Response (tracer at 1μM, listed as amitriptyline-b-2-NB590): 1.17

O=C(CCOCCOCCOCCOCCNC(=O)CCc1ccc2n1[B-](F)(F)[N+]1=C(c3ccc[nH]3)C=CC1=C2)NCCCN1CCN(C2=Nc3cc(Cl)ccc3Nc3ccccc32)CC1 [Clozapine-a-2-NB590]
NanoBRET Fold Response (TACR2, 0.1μM tracer): 1.02 | NanoBRET Fold Response (TACR2, 1μM tracer): 0.89

CN1CCN(C2=Nc3cc(Cl)ccc3Nc3ccc(CNC(=O)CCOCCOCCOCCOCCNC(=O)CCc4ccc5n4[B-](F)(F)[N+]4=C(c6ccc[nH]6)C=CC4=C5)cc32)CC1 [Clozapine-b-2-NB590]
NanoBRET Fold Response (TACR2, 0.1μM tracer): 0.97

Cc1nc2n(c(=O)c1CCN1CCC(c3noc4cc(F)ccc34)CC1)CCCC2OC(=O)NCCOCCOCCOCCOCCNC(=O)CCc1ccc2n1[B-](F)(F)[N+]1=C(c3ccc[nH]3)C=CC1=C2 (stereo not drawn) [Risperidone-2-NB590]
NanoBRET Fold Response (TACR2, tracer 0.1μM): 1.18 | NanoBRET Fold Response (TACR2, tracer 1μM): 1.09
